Experimental data from patent US6656949B1, “4-anilinofuro [3,2-c] quinoline derivatives, and preparation processes and uses of the same” (Kaohsiung Medical University, priority 2002, dated 2003).
Counter-ions that a name gives are not always drawn. Like-named read-outs stand apart in the source and are kept apart here.

Columns and labels:
[1] = tested on: PC-3 and DU-145 of prostate cancer; assay: In vitro anticancer assay (NCI tumor cells screen), prostate cancer panel; type: cell-based, human; details: prostate cancer cell lines, read-out: GI50 (drug molar concentration causing 50% cell growth inhibition), Prostate Cancer
[2] = tested on: CCRF-CEM, HL-60 (TB), K-562, MOLT-4, RPMI-8226, and SR of leukemia; assay: In vitro anticancer assay (NCI tumor cells screen), leukemia panel; type: cell-based; details: leukemia cell lines, read-out: GI50 (drug molar concentration causing 50% cell growth inhibition), Leukemia
[3] = tested on: A549/ATCC, EKVX, HOP-62, HOP-92, NCI-H226, NCI-H23, NCI-H322M, and NCI-H522 of non-small cell lung cancer; assay: In vitro anticancer assay (NCI tumor cells screen), lung cancer panel; type: cell-based, human; details: non-small cell lung cancer cell lines, read-out: GI50 (drug molar concentration causing 50% cell growth inhibition), Lung Cancer
[4] = tested on: SF-268, SF-295, SF-539, SNB-19, SNB-75, and U251 of CNS cancer; assay: In vitro anticancer assay (NCI tumor cells screen), CNS cancer panel; type: cell-based, human; details: CNS cancer cell lines, read-out: GI50 (drug molar concentration causing 50% cell growth inhibition), CNS Cancer
[5] = tested on: LOX IMVI, MALME-3M, M14, SK-MEL-2, SK-MEL-28, SK-MEL-5, UACC-62, and UACC-257 of melanoma; assay: In vitro anticancer assay (NCI tumor cells screen), melanoma panel; type: cell-based, human; details: melanoma cell lines, read-out: GI50 (drug molar concentration causing 50% cell growth inhibition), Melanoma
[6] = tested on: 60 human tumor cell lines; assay: In vitro anticancer assay (NCI tumor cells screen), mean over 60 cell lines; type: cell-based; details: mean values over 60 cell lines tested
[7] = tested on: MCF7, MCF7/ADR-RES, MDA-MB-231/ATCC, HS 578T, MDA-MB-435, MDA-N, and T-47D of breast cancer; assay: In vitro anticancer assay (NCI tumor cells screen), breast cancer panel; type: cell-based, human; details: breast cancer cell lines, read-out: GI50 (drug molar concentration causing 50% cell growth inhibition), Breast Cancer
[8] = tested on: COLO 205, HCC-2998, HCT-116, HCT-15, HT29, KM12, and SW-620 of colon cancer; assay: In vitro anticancer assay (NCI tumor cells screen), colon cancer panel; type: cell-based, human; details: colon cancer cell lines, read-out: GI50 (drug molar concentration causing 50% cell growth inhibition), Colon Cancer
[9] = tested on: IGROV1, OVCAR-3, OVCAR-4, OVCAR-5, OVCAR-8, and SK-OV-3 of ovarian cancer; assay: In vitro anticancer assay (NCI tumor cells screen), ovarian cancer panel; type: cell-based, human; details: ovarian cancer cell lines, read-out: GI50 (drug molar concentration causing 50% cell growth inhibition), Ovarian Cancer
[10] = tested on: 786-0, A498, ACHN, CAKI-1, RXF 393, SN12C, TK-10, and UO-31 of renal cancer; assay: In vitro anticancer assay (NCI tumor cells screen), renal cancer panel; type: cell-based, human; details: renal cancer cell lines, read-out: GI50 (drug molar concentration causing 50% cell growth inhibition), Renal Cancer
UACC-62 = assay: In vitro anticancer assay (NCI tumor cells screen), UACC-62; type: cell-based; details: Homo sapiens; melanoma cell line UACC-62; read-out: GI50 against UACC-62
UO-31 = assay: In vitro anticancer assay (NCI tumor cells screen), UO-31; type: cell-based; details: Homo sapiens; renal cancer cell line UO-31; read-out: GI50 against UO-31
UACC-257 = assay: In vitro anticancer assay (NCI tumor cells screen), UACC-257; type: cell-based; details: Homo sapiens; melanoma cell line UACC-257; read-out: GI50 against UACC-257

Row | Compound | melting point | GI50 ([1]; Homo sapiens, DU-145) [µM] | GI50 ([2]; Homo sapiens) [µM] | GI50 (UACC-62) [µM] | GI50 ([3]; Homo sapiens) [µM] | GI50 ([4]; Homo sapiens) [µM] | GI50 ([5]; Homo sapiens) [µM] | GI50 ([6]; Homo sapiens) [µM] | GI50 ([7]; Homo sapiens) [µM] | GI50 (UO-31) [µM] | GI50 ([8]; Homo sapiens) [µM] | GI50 ([9]; Homo sapiens) [µM] | GI50 (UACC-257) [µM] | GI50 ([10]; Homo sapiens) [µM] | also measured
1 | CC(=NO)c1cccc(Nc2nc3ccccc3c3occc23)c1 (as salt: HCl) [Compound 4, 1-[3-(furo[3,2-c]quinolin-4-ylamino)phenyl]ethanone oxime] | 164 °C (dec.) | – | – | – | – | – | – | – | – | – | – | – | – | – | –
2 | CON=C(C)c1cccc(Nc2nc3ccccc3c3occc23)c1 (as salt: HCl) [Compound 5, 1-[3-(furo[3,2-c]quinolin-4-ylamino)phenyl]ethanone O-methyloxime] | 222 to 223 °C | – | – | – | – | – | – | – | – | – | – | – | – | – | –
3 | CC(=O)c1cccc(Nc2nc3ccccc3c3occc23)c1 [Compound 3] | – | – | – | – | – | – | – | – | – | – | – | – | – | – | GI50 [1]: 32.5 µM; GI50 [2]: 91.2 µM; GI50 [3]: 15.5 µM; GI50 [4]: 19.1 µM; GI50 [5]: 40.2 µM; GI50 [6]: 22.5 µM; GI50 [7]: 34 µM; GI50 [8]: 42.8 µM; GI50 [9]: 28.4 µM; GI50 [10]: 16.1 µM
4 | CC(=NO)c1cccc(Nc2nc3ccccc3c3occc23)c1 [Compound 4, 1-[3-(furo[3,2-c]quinolin-4-ylamino)phenyl]ethanone oxime] | – | 12.7 | 9.26 | < 0.01 | 8.98 | 14.8 | 9.82 | 7.8 | 12 | 0.03 | 10.3 | 14.5 | < 0.01 | 10.3 | –
5 | CON=C(C)c1cccc(Nc2nc3ccccc3c3occc23)c1 [Compound 5, 1-[3-(furo[3,2-c]quinolin-4-ylamino)phenyl]ethanone O-methyloxime] | – | 15.2 | 15.4 | < 0.01 | 10.8 | 14.8 | 11 | 8.78 | 13.1 | < 0.01 | 10.3 | 15.2 | 0.042 | 10.1 | –
